# Active and inactive are the calls of the source. The calls are words filed in the database; no cut-off is given here.
# Key:
# [1] = biological target: T1, Muscarinic acetylcholine receptor M1 (Homo sapiens, UniProt P11229); assay: Displacement of [3H]N-methylscopolamine from human muscarinic M1 receptor expressed in CHO Flp-In cells after 90 mins by scintillation counting; type: cell-based
# T1 sequence (P11229 whole entry): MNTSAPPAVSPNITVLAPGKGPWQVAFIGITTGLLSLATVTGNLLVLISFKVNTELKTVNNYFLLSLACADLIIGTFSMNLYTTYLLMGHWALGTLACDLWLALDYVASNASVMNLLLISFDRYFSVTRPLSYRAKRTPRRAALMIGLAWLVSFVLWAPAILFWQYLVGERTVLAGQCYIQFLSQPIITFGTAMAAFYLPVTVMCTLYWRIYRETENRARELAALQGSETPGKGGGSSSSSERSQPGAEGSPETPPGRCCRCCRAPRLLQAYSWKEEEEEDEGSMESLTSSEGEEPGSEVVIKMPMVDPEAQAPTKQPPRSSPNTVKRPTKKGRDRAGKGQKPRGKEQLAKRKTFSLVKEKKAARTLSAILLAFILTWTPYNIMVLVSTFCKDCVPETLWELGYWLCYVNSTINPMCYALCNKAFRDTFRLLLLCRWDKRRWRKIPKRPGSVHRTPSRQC
# Histamine H1 receptor = Histamine H1 receptor (Homo sapiens, UniProt P35367); assay: Displacement of [3H]pyrilamine from human histamine H1 receptor expressed in CHO Flp-In cells after 90 mins by scintillation counting; type: cell-based
# Cytochrome P450 3A4 = Cytochrome P450 3A4 (Homo sapiens, UniProt P08684); assay: Inhibition of recombinant CYP3A4 after 30 mins by fluorescence assay
# [2] = biological target: T2, Voltage-gated inwardly rectifying potassium channel KCNH2 (Homo sapiens, UniProt Q12809); assay: Displacement of [3H]Dofetilide from human ERG
# Cytochrome P450 2D6 = Cytochrome P450 2D6 (Homo sapiens, UniProt P10635); assay: Inhibition of recombinant CYP2D6 after 30 mins by fluorescence assay
# [3] = biological target: T2, Voltage-gated inwardly rectifying potassium channel KCNH2; assay: Inhibition of human ERG expressed in HEK cells assessed as blockade of potassium tail current by standard patch clamp analysis
# Rattus norvegicus [4] = assay: Effect on sleep-awake pattern in CD IGS rat model of insomnia assessed as latency to NREM sleep at 30 mg/kg, po by EEG/EMG study relative to control; type: functional
# Rattus norvegicus [5] = assay: Effect on sleep-awake pattern in CD IGS rat model of insomnia assessed as latency to REM sleep at 30 mg/kg, po by EEG/EMG study relative to control; type: functional
# Rattus norvegicus [6] = assay: Increase in REM sleep in CD IGS rat model of insomnia at 30 mg/kg, po after 4 hrs by EEG/EMG study relative to control; type: functional
# Rattus norvegicus [7] = assay: Effect on sleep-awake pattern in CD IGS rat model of insomnia assessed as longest 3 NREM bouts at 30 mg/kg, po after 6 hrs by EEG/EMG study relative to control; type: functional
# Rattus norvegicus [8] = assay: Increase in NREM sleep in CD IGS rat model of insomnia at 30 mg/kg, po after 4 hrs by EEG/EMG study relative to control; type: functional
# Rattus norvegicus [9] = assay: Effect on sleep-awake pattern in CD IGS rat model of insomnia assessed as longest 3 REM bouts at 30 mg/kg, po after 6 hrs by EEG/EMG study relative to control; type: functional
# [10] = Drug level in rat plasma at 30 mg/kg, po after 4 hrs; type: ADME, organism-based; design: dose 30 mg/kg, route oral
# [11] = Activity at P-glycoprotein
# Caco-2 = assay: Ratio of permeability from apical to basolateral side over basolateral to apical side in human Caco-2 cells
# [12] = Drug level in rat brain at 30 mg/kg, po after 4 hrs; type: ADME, organism-based; design: dose 30 mg/kg, route oral; settings: read-out: Drug uptake
# [13] = Ratio of drug level in rat brain to plasma at 30 mg/kg, po after 4 hrs; type: ADME, organism-based; design: dose 30 mg/kg, route oral
# [14] = Apparent permeability across human Caco-2 cells; type: ADME, cell-based
# [15] = AUC (0 to t) in human at 0.1 mg/kg, po by microdose study; type: ADME, organism-based; design: dose 0.1 mg/kg, route oral; settings: plasma
# [16] = Half life in human at 0.1 mg/kg by microdose study; type: ADME, organism-based; design: dose 0.1 mg/kg; settings: in vivo
# [17] = Bioavailability in human at 0.1 mg/kg by microdose study; type: ADME, organism-based; settings: in vivo
# [18] = Systemic clearance in human at 0.1 mg/kg, iv by microdose study; type: ADME, organism-based; design: dose 0.1 mg/kg, route intravenous; settings: in vivo
# Sequence of Cytochrome P450 2D6 (P10635 whole entry): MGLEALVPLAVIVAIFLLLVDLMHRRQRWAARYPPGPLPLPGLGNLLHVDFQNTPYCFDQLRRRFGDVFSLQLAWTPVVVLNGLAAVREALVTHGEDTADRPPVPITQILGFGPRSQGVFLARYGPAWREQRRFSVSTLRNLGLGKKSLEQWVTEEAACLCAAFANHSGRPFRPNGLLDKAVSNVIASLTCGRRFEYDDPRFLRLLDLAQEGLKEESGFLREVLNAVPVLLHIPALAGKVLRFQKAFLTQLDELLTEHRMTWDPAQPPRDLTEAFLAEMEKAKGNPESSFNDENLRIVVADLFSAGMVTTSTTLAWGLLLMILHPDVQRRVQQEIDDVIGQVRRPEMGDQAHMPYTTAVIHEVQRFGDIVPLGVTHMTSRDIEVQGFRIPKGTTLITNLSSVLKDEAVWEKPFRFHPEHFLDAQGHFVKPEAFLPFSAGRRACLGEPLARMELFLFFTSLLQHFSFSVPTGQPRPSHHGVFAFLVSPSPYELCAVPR
# T2 sequence (Q12809 whole entry): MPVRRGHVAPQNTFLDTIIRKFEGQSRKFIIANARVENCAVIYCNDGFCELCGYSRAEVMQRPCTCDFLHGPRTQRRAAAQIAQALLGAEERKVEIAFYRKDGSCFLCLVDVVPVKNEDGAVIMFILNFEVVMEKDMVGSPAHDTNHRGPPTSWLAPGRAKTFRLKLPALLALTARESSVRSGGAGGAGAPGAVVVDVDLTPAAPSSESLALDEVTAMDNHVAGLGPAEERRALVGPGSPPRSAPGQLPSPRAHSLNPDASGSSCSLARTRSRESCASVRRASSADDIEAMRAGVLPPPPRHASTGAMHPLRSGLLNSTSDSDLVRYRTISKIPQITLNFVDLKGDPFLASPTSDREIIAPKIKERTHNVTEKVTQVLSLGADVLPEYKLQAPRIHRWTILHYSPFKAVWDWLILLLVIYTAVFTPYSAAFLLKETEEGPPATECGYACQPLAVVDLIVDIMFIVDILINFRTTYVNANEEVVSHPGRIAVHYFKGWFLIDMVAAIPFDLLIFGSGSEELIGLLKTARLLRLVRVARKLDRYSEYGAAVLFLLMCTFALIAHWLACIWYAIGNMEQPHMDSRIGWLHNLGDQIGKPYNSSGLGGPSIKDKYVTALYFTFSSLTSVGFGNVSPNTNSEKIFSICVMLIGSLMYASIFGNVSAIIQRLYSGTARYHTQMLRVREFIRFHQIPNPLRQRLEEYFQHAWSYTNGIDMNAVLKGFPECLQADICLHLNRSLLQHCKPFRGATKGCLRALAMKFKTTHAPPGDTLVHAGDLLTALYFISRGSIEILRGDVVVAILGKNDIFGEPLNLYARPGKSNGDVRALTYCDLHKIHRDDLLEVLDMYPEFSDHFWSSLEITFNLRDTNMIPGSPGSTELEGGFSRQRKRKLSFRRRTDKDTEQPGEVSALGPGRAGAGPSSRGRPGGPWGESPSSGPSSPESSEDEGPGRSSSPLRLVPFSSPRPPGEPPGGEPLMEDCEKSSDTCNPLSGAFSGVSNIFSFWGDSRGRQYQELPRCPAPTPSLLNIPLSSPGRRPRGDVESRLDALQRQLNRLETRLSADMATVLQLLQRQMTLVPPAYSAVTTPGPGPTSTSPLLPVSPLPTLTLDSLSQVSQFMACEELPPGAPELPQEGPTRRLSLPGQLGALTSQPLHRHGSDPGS
# Sequence of Histamine H1 receptor (P35367 whole entry): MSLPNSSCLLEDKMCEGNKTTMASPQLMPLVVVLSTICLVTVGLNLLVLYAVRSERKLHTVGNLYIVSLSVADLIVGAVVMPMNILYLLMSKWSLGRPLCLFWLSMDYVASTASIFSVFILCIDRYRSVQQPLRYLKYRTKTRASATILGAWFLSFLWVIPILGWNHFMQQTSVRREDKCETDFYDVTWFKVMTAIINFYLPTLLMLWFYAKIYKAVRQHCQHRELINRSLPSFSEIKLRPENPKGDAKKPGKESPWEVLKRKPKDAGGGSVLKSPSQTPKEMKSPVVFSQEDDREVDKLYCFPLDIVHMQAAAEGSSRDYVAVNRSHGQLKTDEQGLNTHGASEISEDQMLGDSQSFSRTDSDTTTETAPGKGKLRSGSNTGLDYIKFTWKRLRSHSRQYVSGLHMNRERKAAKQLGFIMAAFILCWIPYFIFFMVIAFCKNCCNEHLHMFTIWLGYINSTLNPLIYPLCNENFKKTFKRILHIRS
# Sequence of Cytochrome P450 3A4 (P08684 whole entry): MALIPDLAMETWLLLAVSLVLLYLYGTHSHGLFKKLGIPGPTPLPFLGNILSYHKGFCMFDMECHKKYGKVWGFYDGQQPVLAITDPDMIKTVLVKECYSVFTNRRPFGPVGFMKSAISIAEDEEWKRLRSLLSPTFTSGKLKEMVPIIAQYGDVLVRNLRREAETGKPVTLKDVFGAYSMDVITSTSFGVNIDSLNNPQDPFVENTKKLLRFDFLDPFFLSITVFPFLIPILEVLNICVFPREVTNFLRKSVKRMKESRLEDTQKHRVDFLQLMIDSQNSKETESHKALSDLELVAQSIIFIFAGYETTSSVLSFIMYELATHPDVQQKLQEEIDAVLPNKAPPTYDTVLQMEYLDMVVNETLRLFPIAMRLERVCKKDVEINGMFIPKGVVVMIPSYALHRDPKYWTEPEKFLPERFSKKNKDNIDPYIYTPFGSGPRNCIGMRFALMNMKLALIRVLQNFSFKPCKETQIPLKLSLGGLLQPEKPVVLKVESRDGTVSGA
Structure (SMILES),Ki ([1]; read-out: Ki),Ki (Histamine H1 receptor; read-out: Ki),IC50 (Cytochrome P450 3A4),Ki [2],IC50 (Cytochrome P450 2D6),IC50 [3],further results
CC(c1nccs1)c1c(CCN(C)C)sc2ccccc12 (racemic),2.07 µM,0.035 µM,> 10 µM,> 5 µM,–,–,–
Cc1ccnc(C(C)c2c(CCN(C)C)sc3ccccc23)c1 (racemic),> 10 µM,0.39 µM,> 10 µM,> 5 µM,–,–,–
COc1ccc(C(C)c2c(CCN(C)C)sc3ccccc23)cn1 (racemic),> 10 µM,0.12 µM,> 10 µM,> 5 µM,–,–,–
COc1cccc(C(C)c2c(CCN(C)C)sc3ccccc23)n1 (racemic),> 10 µM,0.059 µM,> 10 µM,> 5 µM,–,–,–
CC(c1cccc(F)n1)c1c(CCN(C)C)sc2ccccc12 (racemic),> 10 µM,0.038 µM,> 10 µM,> 5 µM,–,–,–
C[C@@H](c1ccccn1)c1c(CCN2CCCC2)sc2ccccc12,5.8 µM,–,> 10 µM,1.1 µM,2.7 µM,–,Ki (Histamine H1 receptor): 0.0061 µM
C[C@@H](c1ccccn1)c1c(CCN2CCC2)sc2ccccc12,> 10 µM,0.0039 µM,> 10 µM,4.2 µM,> 10 µM,0.73 µM,–
Cc1ccc(C(C)c2c(CCN(C)C)sc3ccccc23)cn1 (racemic),> 10 µM,0.069 µM,> 10 µM,> 5 µM,–,–,–
C[C@@H](c1ncccc1F)c1c(CCN(C)C)sc2ccccc12,2.2 µM,0.0027 µM,> 10 µM,> 5 µM,4 µM,0.33 µM,–
COc1cccnc1[C@H](C)c1c(CCN(C)C)sc2ccccc12,> 10 µM,0.005 µM,> 10 µM,> 5 µM,9.5 µM,3 µM,–
C[C@@H](c1cncs1)c1c(CCN(C)C)sc2ccccc12,> 10 µM,0.0052 µM,> 10 µM,> 5 µM,–,–,–
C[C@H](c1cccnc1Cl)c1c(CCN(C)C)sc2ccccc12,> 10 µM,0.0029 µM,> 10 µM,> 5 µM,9.5 µM,1.5 µM,–
C[C@@H](c1ncccc1Cl)c1c(CCN(C)C)sc2ccccc12,> 10 µM,0.008 µM,> 10 µM,> 5 µM,1.5 µM,–,–
C[C@H](c1ccccn1)c1c(CCN(C)C)sc2ccccc12,0.99 µM,–,> 10 µM,> 5 µM,3.3 µM,–,Ki (Histamine H1 receptor): 0.256 µM
CC(c1ccccn1)c1c(CCN(C)C)sc2ccccc12 (racemic),1.4 µM,0.012 µM,> 10 µM,> 5 µM,6.9 µM,–,–
C[C@@H](c1ccc(F)cn1)c1c(CCN(C)C)sc2ccccc12,> 10 µM,0.013 µM,> 10 µM,2.5 µM,> 10 µM,0.24 µM,–
CC(c1c(CCN(C)C)sc2ccccc12)n1ccnc1 (racemic),–,0.122 µM,5.2 µM,> 5 µM,–,–,–
Cc1ccc(-c2nc3ccc(C)cn3c2CC(=O)N(C)C)cc1 [ZOLPIDEM],–,–,–,–,–,–,Activity (Rattus norvegicus [4]): 6 min; Activity (Rattus norvegicus [5]): 101 min; Activity (Rattus norvegicus [6]): 2.3%; Activity (Rattus norvegicus [7]): 14.5 min; Activity (Rattus norvegicus [8]): 47.8%; Activity (Rattus norvegicus [9]): 1.2 min
C[C@H](c1c(CCN(C)C)sc2ccccc12)n1cccn1,> 10 µM,0.0044 µM,> 10 µM,> 5 µM,–,2 µM,concentration at 4 h [10]: 0.6 ng/mL; Activity [11]: inactive; Ratio (Caco-2): > 0.7; concentration at 4 h [12]: 11 ng/g; Kp at 4 h ([13]; read-out: BPR): 20; Papp [14]: > 21.7 ×10⁻⁶ cm/s
C[C@@H](c1cscn1)c1c(CCN(C)C)sc2ccccc12,4.76 µM,0.0046 µM,> 10 µM,–,–,–,–
CNCCc1sc2ccccc2c1[C@@H](C)c1ccccn1,–,0.032 µM,> 10 µM,> 5 µM,9.8 µM,6.5 µM,Ki [1]: 3.7 µM
Cc1cccnc1[C@H](C)c1c(CCN(C)C)sc2ccccc12,> 10 µM,0.0093 µM,> 10 µM,–,–,–,–
CC(c1ccncc1)c1c(CCN(C)C)sc2ccccc12 (racemic),5.6 µM,–,2.8 µM,1.8 µM,0.85 µM,–,Ki (Histamine H1 receptor): 0.023 µM
Cc1ncccc1[C@@H](C)c1c(CCN(C)C)sc2ccccc12,> 10 µM,0.017 µM,> 10 µM,> 5 µM,> 10 µM,–,–
C[C@@H](c1ccccn1)c1c(CCN(C)C)sc2ccccc12,–,0.004 µM,> 10 µM,> 5 µM,–,1.4 µM,concentration at 4 h [10]: 2.8 ng/mL; AUC(0-t) [15]: 2.78 ng·h/mL; Activity [11]: inactive; Ratio (Caco-2): > 0.7; Ki [1]: 5.3 µM; half-life [16]: 6.8 h; concentration at 4 h [12]: 23 ng/g; bioavailability [17]: 47%; Kp at 4 h ([13]; read-out: Ratio): 8; Papp [14]: > 21.7 ×10⁻⁶ cm/s; clearance [18]: 6.2 mL/min/kg

# From ChEMBL document CHEMBL1156278, “Novel benzothiophene H1-antihistamines for the treatment of insomnia” (Bioorg Med Chem Lett, 2010)
